Our source for the inhibition values is ChEMBL document CHEMBL5442219.

Broadly, the inhibition is the change of the read-out against control, counted positive when it falls.

Common to all, as to settings: Compound concentration 10 µM
Experiment [1] concerns the target Histamine H4 receptor (Homo sapiens) (UniProt Q9H3N8).
The target in experiment [2] is T1, Alpha-2B adrenergic receptor (Homo sapiens) (UniProt P18089).
T1 sequence (whole entry): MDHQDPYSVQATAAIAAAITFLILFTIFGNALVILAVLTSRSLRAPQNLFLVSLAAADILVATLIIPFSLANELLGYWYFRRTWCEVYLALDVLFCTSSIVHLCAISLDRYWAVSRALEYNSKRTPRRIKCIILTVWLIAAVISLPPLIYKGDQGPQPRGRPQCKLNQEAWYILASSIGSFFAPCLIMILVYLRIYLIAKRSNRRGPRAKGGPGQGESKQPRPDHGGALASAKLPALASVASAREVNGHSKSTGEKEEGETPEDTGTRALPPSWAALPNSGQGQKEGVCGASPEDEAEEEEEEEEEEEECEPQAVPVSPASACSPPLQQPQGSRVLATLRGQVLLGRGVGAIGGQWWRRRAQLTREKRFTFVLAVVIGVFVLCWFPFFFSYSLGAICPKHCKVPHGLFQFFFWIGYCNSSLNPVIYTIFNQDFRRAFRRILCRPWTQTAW

Experiment [3] has as its target Beta-3 adrenergic receptor (Homo sapiens) (UniProt P13945).
Experiment [4] deals with Sigma intracellular receptor 2 (Homo sapiens) (UniProt Q5BJF2).
For experiment [5], the target named is Translocator protein (Homo sapiens) (UniProt P30536).
Experiment [6] deals with T2, D(4) dopamine receptor (Homo sapiens) (UniProt P21917).
T2 sequence (whole entry): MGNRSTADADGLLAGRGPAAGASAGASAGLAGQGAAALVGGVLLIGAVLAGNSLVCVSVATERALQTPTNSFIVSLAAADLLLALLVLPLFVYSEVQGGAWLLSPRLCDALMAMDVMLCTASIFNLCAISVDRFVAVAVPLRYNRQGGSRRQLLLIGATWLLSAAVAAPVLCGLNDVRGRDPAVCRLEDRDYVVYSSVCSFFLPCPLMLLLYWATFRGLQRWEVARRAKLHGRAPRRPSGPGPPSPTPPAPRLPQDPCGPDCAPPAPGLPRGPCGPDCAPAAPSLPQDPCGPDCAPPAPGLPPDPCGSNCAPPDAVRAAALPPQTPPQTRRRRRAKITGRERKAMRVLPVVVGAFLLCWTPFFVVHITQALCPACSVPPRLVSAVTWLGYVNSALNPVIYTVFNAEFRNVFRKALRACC

The target of experiment [7] is D(2) dopamine receptor (Homo sapiens) (UniProt P14416).
The target in experiment [8] is Muscarinic acetylcholine receptor M3 (Homo sapiens) (UniProt P20309).
Experiment [9] addresses D(1A) dopamine receptor (Homo sapiens) (UniProt P21728).
Experiment [10] concerns the target T3, Alpha-2C adrenergic receptor (Homo sapiens) (UniProt P18825).
T3 sequence (whole entry): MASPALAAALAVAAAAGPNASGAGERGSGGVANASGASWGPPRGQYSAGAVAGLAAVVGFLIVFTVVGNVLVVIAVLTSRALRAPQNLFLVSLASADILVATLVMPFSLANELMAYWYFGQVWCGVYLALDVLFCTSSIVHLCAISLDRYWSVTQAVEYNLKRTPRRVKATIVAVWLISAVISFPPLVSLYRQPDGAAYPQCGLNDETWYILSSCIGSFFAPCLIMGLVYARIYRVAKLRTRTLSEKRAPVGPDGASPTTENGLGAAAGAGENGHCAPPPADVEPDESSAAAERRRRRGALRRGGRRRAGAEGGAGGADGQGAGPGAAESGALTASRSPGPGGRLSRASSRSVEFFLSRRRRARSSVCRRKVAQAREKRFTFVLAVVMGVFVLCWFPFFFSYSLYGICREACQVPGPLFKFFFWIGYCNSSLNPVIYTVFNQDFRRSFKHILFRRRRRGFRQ

For experiment [11], the target named is Sodium-dependent noradrenaline transporter (Homo sapiens) (UniProt P23975).
Experiment [12] concerns the target T4, Alpha-1B adrenergic receptor (Homo sapiens) (UniProt P35368).
T4 sequence (whole entry): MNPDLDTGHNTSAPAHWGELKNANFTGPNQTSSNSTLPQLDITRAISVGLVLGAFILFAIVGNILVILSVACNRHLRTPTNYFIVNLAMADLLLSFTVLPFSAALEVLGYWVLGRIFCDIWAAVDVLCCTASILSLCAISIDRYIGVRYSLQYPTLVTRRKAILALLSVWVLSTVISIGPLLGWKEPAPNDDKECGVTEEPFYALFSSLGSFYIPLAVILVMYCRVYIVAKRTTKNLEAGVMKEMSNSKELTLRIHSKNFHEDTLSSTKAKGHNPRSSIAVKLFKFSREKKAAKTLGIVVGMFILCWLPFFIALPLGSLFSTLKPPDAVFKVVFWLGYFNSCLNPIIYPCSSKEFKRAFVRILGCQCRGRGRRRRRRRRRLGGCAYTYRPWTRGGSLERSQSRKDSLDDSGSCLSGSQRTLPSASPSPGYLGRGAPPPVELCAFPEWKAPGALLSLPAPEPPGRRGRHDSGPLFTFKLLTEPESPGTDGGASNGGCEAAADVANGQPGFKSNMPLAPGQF

The target in experiment [13] is T5, 5-hydroxytryptamine receptor 3A (Homo sapiens) (UniProt P46098).
T5 sequence (whole entry): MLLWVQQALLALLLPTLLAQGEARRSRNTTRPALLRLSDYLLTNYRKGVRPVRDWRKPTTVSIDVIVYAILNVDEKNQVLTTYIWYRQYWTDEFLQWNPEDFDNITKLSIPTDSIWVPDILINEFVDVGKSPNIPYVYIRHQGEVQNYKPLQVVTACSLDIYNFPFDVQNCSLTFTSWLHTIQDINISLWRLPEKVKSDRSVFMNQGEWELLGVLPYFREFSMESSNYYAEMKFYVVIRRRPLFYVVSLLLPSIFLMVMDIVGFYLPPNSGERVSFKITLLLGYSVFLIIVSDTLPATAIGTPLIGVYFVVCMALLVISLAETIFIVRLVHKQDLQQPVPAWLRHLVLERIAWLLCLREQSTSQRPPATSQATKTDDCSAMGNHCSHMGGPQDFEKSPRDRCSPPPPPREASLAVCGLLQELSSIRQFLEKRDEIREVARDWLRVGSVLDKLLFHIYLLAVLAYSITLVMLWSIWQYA

Sequence of Muscarinic acetylcholine receptor M3 (Homo sapiens) (P20309 whole entry, looked up): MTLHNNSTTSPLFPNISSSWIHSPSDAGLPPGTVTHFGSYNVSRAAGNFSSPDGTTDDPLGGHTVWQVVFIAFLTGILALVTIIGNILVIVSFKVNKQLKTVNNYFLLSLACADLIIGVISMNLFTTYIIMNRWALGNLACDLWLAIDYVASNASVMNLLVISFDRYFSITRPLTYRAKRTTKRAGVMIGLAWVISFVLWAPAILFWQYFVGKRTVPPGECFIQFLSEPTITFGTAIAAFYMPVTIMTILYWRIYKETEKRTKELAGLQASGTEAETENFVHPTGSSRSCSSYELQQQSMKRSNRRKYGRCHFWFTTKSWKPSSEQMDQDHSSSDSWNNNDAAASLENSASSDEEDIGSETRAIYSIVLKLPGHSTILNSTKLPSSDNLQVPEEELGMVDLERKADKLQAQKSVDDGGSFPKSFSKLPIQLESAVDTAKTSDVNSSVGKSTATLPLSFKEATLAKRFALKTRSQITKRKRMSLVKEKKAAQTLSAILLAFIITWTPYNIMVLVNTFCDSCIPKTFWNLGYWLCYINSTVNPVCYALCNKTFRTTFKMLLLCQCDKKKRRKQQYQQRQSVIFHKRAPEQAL
Sequence of D(2) dopamine receptor (Homo sapiens) (P14416 whole entry): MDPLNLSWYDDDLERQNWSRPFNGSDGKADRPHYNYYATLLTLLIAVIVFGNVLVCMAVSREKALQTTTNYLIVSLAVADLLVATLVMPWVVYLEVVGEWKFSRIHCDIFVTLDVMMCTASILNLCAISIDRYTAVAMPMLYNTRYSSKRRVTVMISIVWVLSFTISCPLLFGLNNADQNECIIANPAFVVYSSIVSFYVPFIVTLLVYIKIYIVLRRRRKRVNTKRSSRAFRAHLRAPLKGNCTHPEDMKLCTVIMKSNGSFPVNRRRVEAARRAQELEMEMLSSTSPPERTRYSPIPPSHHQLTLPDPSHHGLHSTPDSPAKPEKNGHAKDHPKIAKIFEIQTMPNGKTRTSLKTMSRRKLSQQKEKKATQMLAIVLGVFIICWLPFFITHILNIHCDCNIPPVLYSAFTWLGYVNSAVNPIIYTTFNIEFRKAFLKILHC
Sequence of Histamine H4 receptor (Homo sapiens) (Q9H3N8 whole entry): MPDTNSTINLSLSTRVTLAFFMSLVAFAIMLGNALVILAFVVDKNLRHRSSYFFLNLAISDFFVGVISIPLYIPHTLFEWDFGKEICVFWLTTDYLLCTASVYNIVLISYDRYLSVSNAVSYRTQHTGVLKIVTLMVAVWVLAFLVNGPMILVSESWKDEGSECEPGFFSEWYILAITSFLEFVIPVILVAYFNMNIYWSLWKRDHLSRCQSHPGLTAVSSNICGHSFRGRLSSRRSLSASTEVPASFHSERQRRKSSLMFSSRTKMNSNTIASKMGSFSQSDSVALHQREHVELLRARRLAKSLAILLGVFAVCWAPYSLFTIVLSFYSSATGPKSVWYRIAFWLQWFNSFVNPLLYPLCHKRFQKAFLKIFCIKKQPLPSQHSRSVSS
Sequence of Translocator protein (Homo sapiens) (P30536 whole entry): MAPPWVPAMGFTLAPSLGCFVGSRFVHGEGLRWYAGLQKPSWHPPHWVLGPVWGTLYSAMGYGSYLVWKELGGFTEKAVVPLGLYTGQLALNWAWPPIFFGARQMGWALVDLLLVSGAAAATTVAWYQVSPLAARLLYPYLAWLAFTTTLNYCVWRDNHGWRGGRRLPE
Sequence of Sigma intracellular receptor 2 (Homo sapiens) (Q5BJF2 whole entry): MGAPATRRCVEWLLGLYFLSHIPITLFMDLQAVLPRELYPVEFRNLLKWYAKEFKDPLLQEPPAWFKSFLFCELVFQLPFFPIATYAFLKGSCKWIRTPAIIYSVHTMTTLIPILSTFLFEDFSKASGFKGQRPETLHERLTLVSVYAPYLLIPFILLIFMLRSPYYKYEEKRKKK
Sequence of D(1A) dopamine receptor (Homo sapiens) (P21728 whole entry): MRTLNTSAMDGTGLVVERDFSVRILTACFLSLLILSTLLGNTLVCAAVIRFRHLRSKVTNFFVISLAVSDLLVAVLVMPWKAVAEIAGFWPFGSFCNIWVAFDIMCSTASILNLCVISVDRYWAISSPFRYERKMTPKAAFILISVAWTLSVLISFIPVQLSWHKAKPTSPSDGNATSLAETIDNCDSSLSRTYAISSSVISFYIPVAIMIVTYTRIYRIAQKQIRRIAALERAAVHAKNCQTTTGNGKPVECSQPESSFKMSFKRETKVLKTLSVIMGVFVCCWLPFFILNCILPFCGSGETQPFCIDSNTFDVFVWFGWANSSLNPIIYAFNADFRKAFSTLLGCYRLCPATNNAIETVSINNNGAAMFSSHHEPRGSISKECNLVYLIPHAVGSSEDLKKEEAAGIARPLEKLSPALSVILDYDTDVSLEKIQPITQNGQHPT
Sequence of Beta-3 adrenergic receptor (Homo sapiens) (P13945 whole entry, looked up): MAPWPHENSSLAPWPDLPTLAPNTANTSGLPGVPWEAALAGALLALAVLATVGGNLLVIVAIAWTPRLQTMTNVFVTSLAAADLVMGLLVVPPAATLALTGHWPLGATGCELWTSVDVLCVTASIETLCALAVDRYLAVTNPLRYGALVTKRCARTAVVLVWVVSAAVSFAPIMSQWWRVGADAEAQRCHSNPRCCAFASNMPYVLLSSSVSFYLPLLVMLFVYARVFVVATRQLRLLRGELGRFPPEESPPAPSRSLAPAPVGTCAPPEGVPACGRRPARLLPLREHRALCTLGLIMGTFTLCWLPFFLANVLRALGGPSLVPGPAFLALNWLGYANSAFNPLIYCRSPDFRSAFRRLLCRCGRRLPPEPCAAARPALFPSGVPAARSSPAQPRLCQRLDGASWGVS
Sequence of Sodium-dependent noradrenaline transporter (Homo sapiens) (P23975 whole entry): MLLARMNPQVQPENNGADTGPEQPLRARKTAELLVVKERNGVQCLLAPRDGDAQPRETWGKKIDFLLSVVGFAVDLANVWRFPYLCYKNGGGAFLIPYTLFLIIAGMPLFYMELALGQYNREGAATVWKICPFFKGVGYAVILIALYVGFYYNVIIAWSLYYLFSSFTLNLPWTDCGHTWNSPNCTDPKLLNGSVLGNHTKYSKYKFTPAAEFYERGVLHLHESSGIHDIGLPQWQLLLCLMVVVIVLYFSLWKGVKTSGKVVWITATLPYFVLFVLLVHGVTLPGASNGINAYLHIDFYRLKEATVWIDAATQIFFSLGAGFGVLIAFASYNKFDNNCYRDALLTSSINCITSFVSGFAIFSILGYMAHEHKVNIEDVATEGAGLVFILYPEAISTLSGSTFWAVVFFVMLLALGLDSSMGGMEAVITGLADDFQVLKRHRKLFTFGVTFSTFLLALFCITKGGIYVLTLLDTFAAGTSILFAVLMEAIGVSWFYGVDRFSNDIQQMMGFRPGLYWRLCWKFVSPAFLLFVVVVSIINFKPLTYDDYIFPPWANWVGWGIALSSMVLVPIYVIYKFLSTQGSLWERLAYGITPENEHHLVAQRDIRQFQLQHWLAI

`C[C@@H](NCCc1ccc(O)cc1)[C@@H](O)c1ccc(O)cc1` (relative stereo): the inhibition in [1] was 5.86%; in experiment [2], 5.66%; in experiment [3], 56.6%; in experiment [4], 58.1%; in experiment [5] it was 3.95%; in [6], -1.86%. Moreover, the inhibition was 23.8% in experiment [7]; 18.1% in experiment [8]; -9.44% in [9]; 23.6% in [10]; 51.8% in experiment [11]; 21.4% in [12].

With `COc1ccc(/C=C/CCCCOc2ccc(C(=O)c3cccc(C(=O)O)c3)cc2CCC(=O)O)cc1`, the inhibition in experiment [1] is 4.74%; in experiment [2], 29.1%; in experiment [3] it was 30.7%; in [4], 2.85%; in experiment [5] it was 35.5%; in experiment [13] it was -4.61%. Also, the inhibition in [7] was 28.2%; in [8] it was -5.39%; in experiment [9], -0.17%; in experiment [10] it was 1.56%; in experiment [11], -6.68%; in [12], -5.5%.

On to `O=c1ccn([C@@H]2O[C@H](COP(=O)(O)OP(=O)(O)O)[C@@H](O)[C@H]2O)c(=O)[nH]1`, for which the inhibition in [1] is 7.98%; in experiment [2], -3.44%; in experiment [3], 15.3%; in [4] it was 2.62%; in [5], 5.14%; in experiment [7], 14.8%. Further, the inhibition in experiment [8] was 2.51%; in experiment [10] it was -6.08%; in experiment [11], 13.7%; in experiment [12], -6.51%.

Take `Cc1csc2c(N[C@@H](C)CN3CCN(S(=O)(=O)c4ccc(Cl)c(Cl)c4)CC3)ncnc12`: the inhibition in experiment [1] is 9.69%; in [2], -6.72%; in experiment [3] it was 60.6%; in [4], 73.2%; in experiment [5], 73.6%; in experiment [6], 19.2%. In addition, the inhibition in experiment [7] was 32.8%; in [8], -6%; in experiment [9], -2.84%; in experiment [10] it was 14.6%; in [11], -2.51%; in [12] it was 7.3%.

For the molecule `CCCCCNC(=N)N/N=C/c1c[nH]c2ccc(OC)cc12`, the inhibition in [1] was 27.9%; in experiment [2] it was 69%; in experiment [3], 89.7%; in experiment [4], 94.2%; in experiment [5], 47.4%; in experiment [13] it was 70.2%. The inhibition in experiment [6] is 87.3%; in [7] it was 67.3%; in experiment [8], 7.96%; in experiment [9], 47.1%; in experiment [10], 94.1%; in [12], 62.5%.

Take `Nc1nc2c(c(N3CCNCC3)n1)CCC1=C2[C@@H]2CCCC[C@@H]2O1`: the inhibition is 89.8% in experiment [1]; 31.9% in [2]; 14.4% in experiment [3]; 36.6% in [4]; -6.86% in experiment [5]; 98.1% in [13]. Moreover, the inhibition was 8.96% in [6]; 25.9% in experiment [7]; 15.3% in experiment [8]; -6.45% in experiment [9]; 30.6% in [10]; -8.32% in experiment [12].

Turning to `CC[C@@H]1CN2C(=O)N(C)c3nc(-c4ccccc4)[nH]c3C2=N1`, the inhibition in [1] is -3.92%; in [2], -5.85%; in [3], 19.4%; in [4] it was 4.68%; in experiment [5], -3.48%; in experiment [6], 10.4%. In addition, the inhibition in experiment [8] is -6.97%; in experiment [10] it was -1.57%; in experiment [11], 19.5%; in experiment [12], -5.35%.

Take `CC(C)NCC(O)c1ccc(N)c(C#N)c1` (configuration not stated): the inhibition in experiment [1] is 0.52%; in [3], 59.9%; in experiment [4] it was 29.6%; in [6], -4.2%; in experiment [7], 1.95%; in experiment [8], -7.31%. Besides, the inhibition in experiment [9] was -2.82%; in experiment [10], -3.24%; in [11], 4.01%; in experiment [12] it was -5.56%.

As for `Cc1cc(C(=O)N2Cc3cnn(C)c3Nc3ccccc32)ccc1CNC(=O)N1CCC[C@H]1C(=S)N1CCCN(C)CC1`, the inhibition in experiment [2] is 2.87%; in experiment [3] it was -2.29%; in experiment [4] it was -1.48%; in experiment [5] it was -9.04%; in experiment [13], 25.9%; in experiment [7] it was 5.64%. Also, the inhibition in experiment [8] is 65.2%; in [9] it was -3.37%; in experiment [10], -5.77%; in experiment [12] it was -2.71%.

Take `CCc1cc(C(C)=O)c(O)cc1OCCCCCC(C)(C)c1nn[nH]n1`: the inhibition in experiment [1] was 34.3%; in experiment [2], 15.2%; in experiment [3], 0.68%; in experiment [5], -1.68%; in experiment [13], -9.38%; in experiment [6], 22.6%. The inhibition was 8.34% in [7]; 8.78% in experiment [8]; 1.9% in experiment [9]; 12% in experiment [10]; -3.95% in experiment [12].

With `CN1C2CCC1CC(OC(c1ccc(F)cc1)c1ccc(F)cc1)C2` (configuration not stated), the inhibition in [1] is 67.8%; in [3], 36%; in experiment [4] it was 100%; in experiment [5], 47.8%; in experiment [13], 79.5%; in [6], 21%. Besides, the inhibition is 67.8% in experiment [7]; 95.9% in experiment [8]; 83% in [9]; 102% in experiment [11]; 96.5% in experiment [12].
